1 compound from patent US20210106566A1, “PHARMACEUTICAL COMPOSITION FOR TREATING AND/OR PREVENTING PERIPHERAL NEUROPATHY OR SPINAL CORD INJURY” (NATIONAL UNIVERSITY CORPORATION NAGOYA UNIVERSITY, priority 2015, published 2021) can be followed below.

Assay [1] concerns mouse sciatic nerve autologous transplantation model. Description: Mouse sciatic nerve autologous transplantation model: walking track analysis (SFI). Format: in vivo. The note with it: 30 mg/kg/day, 6 to 8 weeks after surgery. The source says: Adult male C57BL/6J mice (8 weeks old; 19.5-22.0 g) were purchased from Charles River. The mice were anesthetized with isoflurane and underwent gluteal muscle incision under a sterile condition to expose the sciatic nerve in the left leg. The sciatic nerve was cut at the following two sites (1) and (2): (1) the site 3 mm distal to the first bifurcation of biceps femoris (hereinafter referred to as proximal transection site) (2) the site 3 mm distal to the proximal transection site (hereinafter referred to as distal transection site) The excised nerve segment with a length of 3 mm was confirmed to be completely cut at the two sites. […] Myelin sheath formation in the sciatic nerve was analyzed in six mice in each group. […] The number and area of myelinated axons in the sciatic nerve were manually measured using ImageJ software in a blinded fashion. Motor function was assessed every week in three mice in each group using the walking track analysis. In the walking track analysis, footprints of both hindlimbs were recorded when mice were allowed to walk freely on a runway. Sciatic function index (SFI; Bain et al. Plast Reconstr Surg 83: 129-138 (1989)) was calculated by measuring the width and length of footprints of both legs in a blinded fashion. […] Footprints were recorded on six to eight thin boards.

The subject of assay [2] is Bdnf, Ngf, Ntf4, Ntrk1, Ntrk2, Map2, Mapt, and Gap43. Description: Severely crushed spinal cord model mice: mRNA in spinal cord segments. Format: in vivo, mouse. The note with it: spinal cord segment distal to the damaged area, 28 days after surgery, versus control group. The source says: Severely crushed spinal cord model mice were produced according to the “Method of producing severely crushed spinal cord model mice” as described in Example 8. Spinal cords were isolated from four mice in the zonisamide administration group and four mice in the control group 28 days after surgery and the segment of the damaged area with a length of 5 mm and the segment with a length of 5 mm distal to the damaged area were collected (FIG. 16). Total RNA was isolated using Trizol (Thermo Fisher Scientific) from each spinal cord segment with a length of 5 mm. Single-stranded cDNA was synthesized using ReverTra Ace (Toyobo). The mRNA expression levels of neurotrophic factors, Bdnf, Ngf, Ntf4, Ntrk1, Ntrk2, Map2, Mapt, and Gap43 were quantified using LightCycler 480 Real-Time PCR (Roche) and SYBR Green (Takara) (FIGS. 17, 18, 19, 20, 21, 22, 23, and 24). The mRNA levels were normalized with the expression level of GAPDH.

Assay [3] shares this test system. Description: Real-time RT-PCR of genes associated with neurite outgrowth in primary motor neurons. In kind it is cell-based, mouse. The text has this: Total RNA was isolated, using Trizol (Thermo Fisher Scientific), from primary motor neurons cultured with 0, 1, or 10 μmol/L zonisamide. Similarly, total RNA was isolated from sciatic nerve segments with a length of 3 mm or from tibialis anterior muscle. Single-stranded cDNA was synthesized using ReverTra Ace (Toyobo). The mRNA expression levels of Bdnf, Ngf, Ntf4, Ntrk1, Ntrk2, Map2, Mapt, and Gap43 were quantified using LightCycler 480 Real-Time PCR (Roche) and SYBR Green (Takara). The mRNA levels were normalized with the expression level of Gapdh.
A general note: In qPCR the cycle at which signal appears reflects the starting amount.

In assay [4] the test system is mouse sciatic nerve autologous transplantation model. As to the kind of experiment: Mouse sciatic nerve autologous transplantation model: number and area of myelinated axons. Format: in vivo. The note with it: 30 mg/kg/day to the stomach, one week after surgery, section 0.7 mm distal to the distal transection site. The source says: Adult male C57BL/6J mice (8 weeks old; 19.5-22.0 g) were purchased from Charles River. The mice were anesthetized with isoflurane and underwent gluteal muscle incision under a sterile condition to expose the sciatic nerve in the left leg. The sciatic nerve was cut at the following two sites (1) and (2): (1) the site 3 mm distal to the first bifurcation of biceps femoris (hereinafter referred to as proximal transection site) (2) the site 3 mm distal to the proximal transection site (hereinafter referred to as distal transection site) The excised nerve segment with a length of 3 mm was confirmed to be completely cut at the two sites. The perineurium was sutured with nylon thread (10-0 black) at the proximal transection site and the distal transection site under a microscope. The remaining thread was used as a marker for finding the nerve transection site in the sacrifice of the mice. In order to reduce DMSO toxicity, a solution of 60 mg/mL zonisamide in 100% DMSO was prepared and the solution was diluted in olive oil to give a solution of 3 mg/mL zonisamide in 5% DMSO. […] Myelin sheath formation in the sciatic nerve was analyzed in six mice in each group. […] The number and area of myelinated axons in the sciatic nerve were manually measured using ImageJ software in a blinded fashion.

[5] abbreviates: 2 and 3 days after zonisamide addition.

As for `NS(=O)(=O)Cc1noc2ccccc12` [Zonisamide, 3-sulfamoylmethyl-1,2-benzisoxazole], the “SFI (sciatic function index), motor function of hindlimbs” value in assay [1] is reported as “dramatically improved”. In assay [2], the “expression level of MAP2 gene” value was “significantly increased”, the “expression level of NGF” value was “seemed to be increased” and the “expression level of Tau gene” value is recorded as “significantly increased”. Besides, in assay [3], the “mRNA level of GAP43” value is “not increased until day 3”, the “mRNA level of MAP2” value is on record as “not increased until day 3”, the “mRNA level of Mapt” value is “not increased until day 3” and the “mRNA level of Ntrk1” value is “increased”. Also, the “mRNA level of Ntrk2” value in assay [3] is listed as “increased”. In assay [3] (setting [5]), the “mRNA level of BDNF” value was “increased”, the “mRNA level of NGF” value was “increased” and the “mRNA level of NTF4” value is given as “increased”. Moreover, in assay [4], the “area of axons, increase compared to the zonisamide non-administration group” value was 3.9 fold and the number of axons entry is given as “unchanged”.
